US11535621B2, “Heterobicyclic amides as inhibitors of CD38” (Ribon Therapeutics, Inc., priority 2019, dated 2022)

Target: Human CD38 (Homo sapiens (Human), UniProt P28907)
Assay: CD38 enzyme assay
Assay type: biochemical
Details: 2 nM CD38, NAD+ substrate, absorbance at 405 nm
Text: [formula] where SUBcmpd is the subtracted value for the individual compound treated well, SUBmin is the average of the subtracted values of the 4-(((1r,4r)-4-(2-methoxyethoxy)cyclohexyl)amino)-1-methyl-6-(thiazol-5-yl)quinolin-2(1H)-one positive control wells and SUBmax is the average of the subtracted values of the DMSO negative control wells.
The % inhibition values were plotted as a function of compound concentration and the following 4-parameter fit was applied to derive the IC50 values:
[formula] where top and bottom are normally allowed to float, but may be fixed at 100 or 0 respectively in a 3-parameter fit. The Hill Coefficient is normally allowed to float but may also be fixed at 1 in a 3-parameter fit. Y is the % inhibition and X is the compound concentration.

Chain of Human CD38 (P28907 whole entry): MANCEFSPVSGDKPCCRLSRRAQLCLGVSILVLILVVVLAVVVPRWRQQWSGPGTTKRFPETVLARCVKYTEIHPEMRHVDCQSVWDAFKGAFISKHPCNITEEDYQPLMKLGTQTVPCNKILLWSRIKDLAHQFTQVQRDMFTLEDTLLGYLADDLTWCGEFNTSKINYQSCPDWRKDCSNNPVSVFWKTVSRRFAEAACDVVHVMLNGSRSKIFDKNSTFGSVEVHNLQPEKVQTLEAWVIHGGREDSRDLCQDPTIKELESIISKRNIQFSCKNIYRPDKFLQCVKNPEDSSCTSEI

SMILES | IC50
CO[C@]1(C)CC[C@H](NC(=O)c2nc(-n3ccnc3)nc3cc[nH]c23)CC1 [Example 128b, 2-(1H-imidazol-1-yl)-N-((1s,4s)-4-methoxy-4-methylcyclohexyl)-5H-pyrrolo[3,2-d]pyrimidine-4-carboxamide] | 0.01 to 0.1 µM
CC1(C#N)CN([C@H]2CC[C@H](NC(=O)c3nc(-n4ccnc4)cc4cn[nH]c34)CC2)C1 [Example 258, N-((1r,4r)-4-(3-cyano-3-methylazetidin-1-yl)cyclohexyl)-5-(1H-imidazol-1-yl)-1H-pyrazolo[3,4-c]pyridine-7-carboxamide] | 0.01 to 0.1 µM
O=C(N[C@H]1CC[C@H](NCCC(F)(F)F)CC1)c1nc(-n2ccnc2)nc2cc[nH]c12 [Example 103, 2-(1H-imidazol-1-yl)-N-((1r,4r)-4-((3,3,3-trifluoropropyl)amino)cyclohexyl)-5H-pyrrolo[3,2-d]pyrimidine-4-carboxamide] | 0.01 to 0.1 µM
O=C(N[C@H]1CC[C@H](C(F)(F)F)CC1)c1nc(-n2ccnc2)nc2nc[nH]c12 [Example 147] | 0.01 to 0.1 µM
CO[C@H]1CC[C@H](NC(=O)c2nc(-n3ccnc3)nc3cc[nH]c23)CC1 [Example 58, 2-(1H-Imidazol-1-yl)-N-((1r,4r)-4-methoxycyclohexyl)-5H-pyrrolo[3,2-d]pyrimidine-4-carboxamide] | < 0.01 µM
COCCO[C@H]1CC[C@H](NC(=O)c2cc(-c3cncs3)cc3nc[nH]c23)CC1 [Example 4, N-((1r,4r)-4-(2-Methoxyethoxy)cyclohexyl)-5-(thiazol-5-yl)-1H-benzo[d]imidazole-7-carboxamide] | 0.1 to 1 µM
CO[C@H]1C[C@H](NC(=O)c2nc(-n3ccnc3)nc3cc[nH]c23)C1 [Example 66, 2-(1H-Imidazol-1-yl)-N-((1r,3r)-3-methoxycyclobutyl)-5H-pyrrolo[3,2-d]pyrimidine-4-carboxamide] | 0.01 to 0.1 µM
CN(C)CCOCCO[C@H]1CC[C@H](NC(=O)c2nc(-n3ccnc3)nc3cc[nH]c23)CC1 [Example 133] | 0.01 to 0.1 µM
O=C(NC1CCN(CC(F)(F)F)C1)c1nc(-n2ccnc2)nc2cc[nH]c12 (centres unmarked) [Example 68, 2-(1H-Imidazol-1-yl)-N-(1-(2,2,2-trifluoroethyl)pyrrolidin-3-yl)-5H-pyrrolo[3,2-d]pyrimidine-4-carboxamide] | 0.01 to 0.1 µM
O=C(N[C@H]1CC[C@H](OCCN2CCOCC2)CC1)c1nc(-n2ccnc2)nc2cc[nH]c12 [Example 97, 2-(1H-Imidazol-1-yl)-N-((1r,4r)-4-(2-morpholinoethoxy)cyclohexyl)-5H-pyrrolo[3,2-d]pyrimidine-4-carboxamide] | 0.01 to 0.1 µM
COCCN[C@H]1CC[C@H](NC(=O)c2nc(-n3ccnc3)nc3cc[nH]c23)CC1 [Example 56, 2-(1H-Imidazol-1-yl)-N-((1r,4r)-4-((2-methoxyethyl)amino)cyclohexyl)-5H-pyrrolo[3,2-d]pyrimidine-4-carboxamide] | 0.01 to 0.1 µM
COCCO[C@H]1CC[C@H](NC(=O)c2nc(-n3ccnc3)cc3cnn(C)c23)CC1 [Example 197, 5-(1H-imidazol-1-yl)-N-((1r,4r)-4-(2-methoxyethoxy)cyclohexyl)-1-methyl-1H-pyrazolo[3,4-c]pyridine-7-carboxamide] | 0.01 to 0.1 µM
O=C(NC1CCN(CCC(F)(F)F)CC1)c1nc(-n2ccnc2)nc2cc[nH]c12 [Example 55, 2-(1H-Imidazol-1-yl)-N-(1-(3,3,3-trifluoropropyl)piperidin-4-yl)-5H-pyrrolo[3,2-d]pyrimidine-4-carboxamide] | 0.01 to 0.1 µM
COCn1cc(NC(=O)c2nc(-n3ccnc3)nc3cc[nH]c23)cn1 [Example 132] | < 0.01 µM
Cc1nc2nc(-n3ccnc3)nc(C(=O)NC3CCC(F)(F)CC3)c2[nH]1 [Example 117, N-(4,4-difluorocyclohexyl)-2-(1H-imidazol-1-yl)-8-methyl-7H-purine-6-carboxamide] | 0.01 to 0.1 µM
CN(C)C(=O)CO[C@H]1CC[C@H](NC(=O)c2nc(-n3ccnc3)nc3cc[nH]c23)CC1 [Example 146] | 0.01 to 0.1 µM
O=C(N[C@H]1CC[C@H](NCC(F)(F)F)CC1)c1nc(-n2ccnc2)nc2cc[nH]c12 [Example 101, 2-(1H-imidazol-1-yl)-N-((1r,4r)-4-((2,2,2-trifluoroethyl)amino)cyclohexyl)-5H-pyrrolo[3,2-d]pyrimidine-4-carboxamide] | 0.01 to 0.1 µM
O=C(Nc1ccncn1)c1nc(-n2ccnc2)nc2cc[nH]c12 [Example 150] | < 0.01 µM
CC(C)[C@@](C)(O)CO[C@H]1CC[C@H](NC(=O)c2nc(-n3ccnc3)nc3cc[nH]c23)CC1 (single isomer, unassigned) [Example 126a] | 0.01 to 0.1 µM

Results, then the compound that gave them:

IC50 | SMILES
0.01 to 0.1 µM | C[C@]1(NCC(F)(F)F)CC[C@@H](NC(=O)c2nc(-n3ccnc3)nc3cn[nH]c23)CC1 [Example 274, 5-(1H-imidazol-1-yl)-N-((1s,4s)-4-methyl-4-((2,2,2-trifluoroethyl)amino)cyclohexyl)-1H-pyrazolo[4,3-d]pyrimidine-7-carboxamide]
< 0.01 µM | CC(C)(O)[C@H]1CC[C@H](NC(=O)c2nc(-n3ccnc3)cc3ccsc23)CC1 [Example 260, N-((1r,4r)-4-(2-hydroxypropan-2-yl)cyclohexyl)-5-(1H-imidazol-1-yl)thieno[2,3-c]pyridine-7-carboxamide]
0.01 to 0.1 µM | O=C(NCCC(F)F)c1nc(-n2ccnc2)cc2cn[nH]c12 [Example 245, N-(3,3-difluoropropyl)-5-(1H-imidazol-1-yl)-1H-pyrazolo[3,4-c]pyridine-7-carboxamide]
0.01 to 0.1 µM | CC(F)(F)CN[C@H]1CC[C@H](NC(=O)c2nc(-n3ccnc3)nc3cn[nH]c23)CC1 [Example 244, N-((1r,4r)-4-((2,2-difluoropropyl)amino)cyclohexyl)-5-(1H-imidazol-1-yl)-1H-pyrazolo[4,3-d]pyrimidine-7-carboxamide]
0.01 to 0.1 µM | CN(C)C(=O)CO[C@H]1CC[C@H](NC(=O)c2nc(-n3ccnc3)nc3cn[nH]c23)CC1 [Example 201, N-((1r,4r)-4-(2-(dimethylamino)-2-oxoethoxy)cyclohexyl)-5-(1H-imidazol-1-yl)-1H-pyrazolo[4,3-d]pyrimidine-7-carboxamide]
0.01 to 0.1 µM | O=C(N[C@H]1CC[C@H](NC2COC2)CC1)c1nc(-n2ccnc2)cc2cn[nH]c12 [Example 233, 5-(1H-imidazol-1-yl)-N-((1r,4r)-4-(oxetan-3-ylamino)cyclohexyl)-1H-pyrazolo[3,4-c]pyridine-7-carboxamide]
0.01 to 0.1 µM | O=C(N[C@H]1CC[C@H](N2CC(C(F)(F)F)C2)CC1)c1nc(-n2ccnc2)cc2cn[nH]c12 [Example 234, 5-(1H-imidazol-1-yl)-N-((1r,4r)-4-(3-(trifluoromethyl)azetidin-1-yl)cyclohexyl)-1H-pyrazolo[3,4-c]pyridine-7-carboxamide]
0.01 to 0.1 µM | O=C(N[C@H]1CC[C@H](NCC(F)F)CC1)c1nc(-n2ccnc2)nc2cn[nH]c12 [Example 206, N-((1r,4r)-4-(2,2-difluoroethylamino)cyclohexyl)-5-(1H-imidazol-1-yl)-1H-pyrazolo[4,3-d]pyrimidine-7-carboxamide]
0.01 to 0.1 µM | O=C(N[C@H]1CC[C@H](C(F)(F)F)CC1)c1nc(-n2ccnc2)nc2cn[nH]c12 [Example 160]
0.1 to 1 µM | C[C@]1(NCC(F)(F)F)CC[C@H](NC(=O)c2nc(-n3ccnc3)nc3cn[nH]c23)CC1 [Example 275, 5-(1H-imidazol-1-yl)-N-((1r,4r)-4-methyl-4-((2,2,2-trifluoroethyl)amino)cyclohexyl)-1H-pyrazolo[4,3-d]pyrimidine-7-carboxamide]
